Reference: ChEMBL document CHEMBL1151614, “Microbial transformations of natural antitumor agents, 25. Conversions of 3-ketoaphidicolin” (1984)
Values after ≈ are worked out from the molar mass of the structure shown.

Tested on: P388
Experiment: In vivo antitumor activity against mouse P388 cells
Assay type: functional

Q: How did the ED50 turn out when `C[C@@]1(CO)[C@H](O)CC[C@@]2(C)[C@H]1[C@H](O)C[C@H]1C[C@@H]3C[C@@]12CC[C@]3(O)CO` was run?
A: The ED50 was 18 µg/mL (≈ 50.8 µM).

Q: Which ED50 does the source give for `C[C@@]1(CO)[C@@H](O)CC[C@@]2(C)[C@H]1CC[C@H]1C[C@@H]3C[C@@]12CC[C@]3(O)CO` here?
A: The ED50 was 13 µg/mL (≈ 38.4 µM).

Q: For `C[C@@H]1C(=O)CC[C@@]2(C)[C@H]1CC[C@H]1C[C@@H]3C[C@@]12CC[C@]3(O)CO`, which ED50 is on record?
A: The ED50 was 12 µg/mL (≈ 39.2 µM).

Q: For `C[C@@]1(C(=O)O)[C@H](O)CC[C@@]2(C)[C@H]1CC[C@H]1C[C@@H]3C[C@@]12CC[C@]3(O)CO`, which ED50 is on record?
A: Its ED50 is 2.2 µg/mL (≈ 6.24 µM).

Q: With `C[C@]12CCC(=O)[C@@](C)(CO)[C@@H]1CC[C@H]1C[C@@H]3C[C@@]12CC[C@]3(O)CO` as the compound, how does the ED50 read?
A: Its ED50 is 2.4 µg/mL (≈ 7.13 µM).

Q: Which ED50 does the source give for `C[C@]12CCC(=O)[C@@](C)(CO)[C@@H]1[C@H](O)C[C@H]1C[C@@H]3C[C@@]12CC[C@]3(O)CO` here?
A: The ED50 was 100 µg/mL (≈ 284 µM).

Q: With `C[C@@]1(CO)[C@H](O)CC[C@@]2(C)[C@H]1CC[C@H]1C[C@@H]3C[C@@]12CC[C@]3(O)CO` [APHIDICOLIN] as the compound, how does the ED50 read?
A: The ED50 was 0.13 µg/mL (≈ 0.384 µM).
